Measured values taken from ChEMBL document CHEMBL1201862, “PubChem BioAssay data set” (2004).
Active and inactive are the calls of the source.

What was measured:
[1] = target: Glyceraldehyde-3-phosphate dehydrogenase (Homo sapiens, UniProt P04406)
[2] = target: T1, Tyrosine-protein phosphatase non-receptor type 7 (Homo sapiens, UniProt P35236); format: functional
T1 sequence (P35236 whole entry): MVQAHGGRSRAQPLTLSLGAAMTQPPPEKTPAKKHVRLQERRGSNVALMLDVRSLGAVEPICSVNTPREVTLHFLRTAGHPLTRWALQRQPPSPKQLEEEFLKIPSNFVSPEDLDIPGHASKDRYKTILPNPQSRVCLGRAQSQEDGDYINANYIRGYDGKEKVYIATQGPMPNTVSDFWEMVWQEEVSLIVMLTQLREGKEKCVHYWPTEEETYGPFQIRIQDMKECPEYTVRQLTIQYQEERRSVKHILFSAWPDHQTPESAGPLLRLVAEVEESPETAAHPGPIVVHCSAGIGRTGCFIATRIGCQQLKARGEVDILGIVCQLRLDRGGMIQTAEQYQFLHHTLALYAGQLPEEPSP

[3] = target: T2, Dual specificity protein phosphatase 6 (Rattus norvegicus, UniProt Q64346)
T2 sequence (Q64346 whole entry): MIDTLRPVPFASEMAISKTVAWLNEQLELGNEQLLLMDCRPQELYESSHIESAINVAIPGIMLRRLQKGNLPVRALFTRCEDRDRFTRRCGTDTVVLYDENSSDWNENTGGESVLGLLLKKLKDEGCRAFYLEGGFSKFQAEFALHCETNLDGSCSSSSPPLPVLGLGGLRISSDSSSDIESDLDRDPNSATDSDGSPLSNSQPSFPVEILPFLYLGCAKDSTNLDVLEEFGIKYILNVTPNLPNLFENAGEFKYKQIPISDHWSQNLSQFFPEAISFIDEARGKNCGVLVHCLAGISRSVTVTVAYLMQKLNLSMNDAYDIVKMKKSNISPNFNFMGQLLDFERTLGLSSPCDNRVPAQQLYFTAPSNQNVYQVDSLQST

[4] = target: T2, Dual specificity protein phosphatase 6; format: functional
[5] = HEp-2 cell cytotoxicity, dose response, cytotoxicity control for RSV inhibitor project, HTS (AID 2410); format: functional; settings: human respiratory syncytial virus
[6] = target: T3, Eukaryotic translation initiation factor 2-alpha kinase 3 (Homo sapiens, UniProt Q9NZJ5); assay: Dose response cell-based high-throughput screening assay to measure PERK inhibition. [Related pubchem assays: 1416 ]; format: functional
T3 sequence (Q9NZJ5 whole entry): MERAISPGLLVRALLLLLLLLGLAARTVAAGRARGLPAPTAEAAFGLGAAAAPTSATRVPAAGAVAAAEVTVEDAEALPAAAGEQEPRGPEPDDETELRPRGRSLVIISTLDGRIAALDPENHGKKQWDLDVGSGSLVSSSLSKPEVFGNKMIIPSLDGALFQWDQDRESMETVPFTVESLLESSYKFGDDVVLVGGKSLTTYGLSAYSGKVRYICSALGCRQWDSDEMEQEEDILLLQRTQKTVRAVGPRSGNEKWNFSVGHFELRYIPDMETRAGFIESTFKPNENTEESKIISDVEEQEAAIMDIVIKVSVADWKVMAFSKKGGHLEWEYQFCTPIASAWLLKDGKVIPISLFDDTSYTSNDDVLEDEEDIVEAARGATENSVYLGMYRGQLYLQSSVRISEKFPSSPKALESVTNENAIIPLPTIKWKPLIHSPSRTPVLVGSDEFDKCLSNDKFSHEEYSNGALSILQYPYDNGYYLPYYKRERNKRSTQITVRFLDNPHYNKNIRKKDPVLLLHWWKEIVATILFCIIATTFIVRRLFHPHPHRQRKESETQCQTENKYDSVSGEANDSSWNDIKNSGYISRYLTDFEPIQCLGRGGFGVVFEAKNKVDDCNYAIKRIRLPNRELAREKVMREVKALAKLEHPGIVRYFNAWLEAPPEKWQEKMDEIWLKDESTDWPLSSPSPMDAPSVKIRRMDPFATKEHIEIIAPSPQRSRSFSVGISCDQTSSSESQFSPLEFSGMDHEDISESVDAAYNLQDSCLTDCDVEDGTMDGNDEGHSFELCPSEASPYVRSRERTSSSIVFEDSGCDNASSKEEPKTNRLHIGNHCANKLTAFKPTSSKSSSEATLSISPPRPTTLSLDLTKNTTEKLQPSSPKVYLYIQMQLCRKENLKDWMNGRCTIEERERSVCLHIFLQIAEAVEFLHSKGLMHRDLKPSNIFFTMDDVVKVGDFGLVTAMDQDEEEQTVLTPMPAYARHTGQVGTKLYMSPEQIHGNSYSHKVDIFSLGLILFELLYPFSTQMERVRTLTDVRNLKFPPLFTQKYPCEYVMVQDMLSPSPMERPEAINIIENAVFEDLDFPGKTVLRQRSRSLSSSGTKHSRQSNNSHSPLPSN

[7] = target: T3, Eukaryotic translation initiation factor 2-alpha kinase 3; assay: Counterscreen assay for PERK inhibitors: Dose response cell-based high throughput screening assay to measure inhibition of PERK at 6 hours. [Related pubchem assays: 1522, 1416 ]; format: functional
[8] = target: Acyl-homoserine lactone acylase PvdQ (Pseudomonas aeruginosa (strain LESB58), UniProt Q9I194); assay: P. aeruginosa PvdQ acylase inhibitors, dose response, biochemical, fluorescence, plate reader and imaging, cherry-picks (AID 493231)
[9] = target: Peroxisome proliferator-activated receptor gamma/Nuclear receptor coactivator 1 (Homo sapiens, UniProt P37231); format: functional;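 note: agonist potency as compounds enhance coactivator SRC-1 recruitment to PPARgamma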
[10] = target: Peroxisome proliferator-activated receptor gamma/Nuclear receptor coactivator 2 (Homo sapiens, UniProt P37231); format: functional;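 note: agonist potency for raising coactivator recruitment to the receptor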
[11] = target: Peroxisome proliferator-activated receptor gamma/Nuclear receptor coactivator 3 (Homo sapiens, UniProt P37231); format: functional;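 note: agonist potency for raising coactivator recruitment to the receptor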
[12] = target: T4, Neuropeptide Y receptor type 2 (Homo sapiens, UniProt P49146); format: functional, cell-based;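 note: HEK293 cells expressing the receptor and a CNG channel; stimulus was NPY near EC95 followed by isoproterenol to raise cAMP; antagonist potency measured as restoring cAMP signal that NPY suppresses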
T4 sequence (P49146 whole entry): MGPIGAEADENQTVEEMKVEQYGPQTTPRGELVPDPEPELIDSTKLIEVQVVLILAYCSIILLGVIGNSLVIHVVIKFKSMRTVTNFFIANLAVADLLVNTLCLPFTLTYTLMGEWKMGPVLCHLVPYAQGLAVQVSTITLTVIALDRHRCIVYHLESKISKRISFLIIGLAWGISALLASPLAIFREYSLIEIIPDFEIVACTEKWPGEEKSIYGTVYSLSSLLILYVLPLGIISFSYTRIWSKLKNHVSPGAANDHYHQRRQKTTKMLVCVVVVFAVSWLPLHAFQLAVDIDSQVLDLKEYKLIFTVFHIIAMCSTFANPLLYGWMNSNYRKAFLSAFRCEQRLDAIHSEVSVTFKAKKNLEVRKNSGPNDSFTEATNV

[13] = target: T5, Neuropeptide Y receptor type 1 (Homo sapiens, UniProt P25929); format: functional;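 note: HEK293 cells with a CNG channel challenged with NPY then isoproterenol; potency as antagonist that reverses NPY suppression of cAMP signal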
T5 sequence (P25929 whole entry): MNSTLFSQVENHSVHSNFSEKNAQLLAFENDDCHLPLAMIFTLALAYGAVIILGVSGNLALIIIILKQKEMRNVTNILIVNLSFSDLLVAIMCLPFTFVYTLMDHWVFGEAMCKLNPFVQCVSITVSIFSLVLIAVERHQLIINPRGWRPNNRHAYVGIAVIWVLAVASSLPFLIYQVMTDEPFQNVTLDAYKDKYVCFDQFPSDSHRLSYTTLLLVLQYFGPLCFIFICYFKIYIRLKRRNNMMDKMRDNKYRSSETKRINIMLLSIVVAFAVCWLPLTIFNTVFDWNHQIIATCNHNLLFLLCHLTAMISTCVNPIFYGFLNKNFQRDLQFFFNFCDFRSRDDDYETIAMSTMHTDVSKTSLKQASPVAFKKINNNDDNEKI

NS3 = NS3 (Hepatitis C virus, UniProt A3EZJ3); assay: PubChem AID 2173; parameters: species or system Hepacivirus hominis
Genome polyprotein = Genome polyprotein (dengue virus type 2, UniProt P29990); assay: Dengue-2 NS5 methyltransferase inhibitors, primary screen, biochemical, confirmation dose response (AID 588689); format: functional
Vero = Vero cell cytotoxicity, cytotoxicity control for flavivirus capping enzyme inhibitors (AID 588742); format: functional; settings: Chlorocebus sabaeus
[14] = target: Luciferin 4-monooxygenase (Photinus pyralis, UniProt P08659); assay: firefly luciferase enzyme inhibitors, dose response, biochemical, luminescence (AID 1891)
[15] = HIV-1 Env-mediated cell fusion inhibitors, dose response, CCR5-tropic Env (AID 2279); format: functional
[16] = Luminescence Cell-Based Dose Confirmation HTS to Identify Inhibitors of Platelet Dense Granule Release. [Related pubchem assays: 1663 (Primary HTS), 1678 (Summary of Project)]; format: functional
H4 = assay: Luminescence Cell-Based Dose Response HTS to Identify Activators of 5'UTR Stem-Loop Driven Prion Protein mRNA Translation in H4 Neuroglioblastoma Cells. [Related pubchem assays: 1829 (Project Summary), 1814 (Primary HTS)]; format: functional; settings: Homo sapiens
[17] = Luminescence Cell-Based Dose Confirmation HTS to Identify Activators of 5'UTR Stem-Loop Driven Alpha-Synuclein mRNA Translation in H4 Neuroglioblastoma Cells. [Related pubchem assays: 1829 (Project Summary), 1814 (Primary HTS)]; format: functional
[18] = Luminescence Cell-Based Dose Retest to Confirm Inhibitors of Cancer Stem Cells. [Related pubchem assays (depositor defined):AID2717, AID2721]; format: functional; settings: Homo sapiens
Streptococcus = assay: Group A Streptococcus viability loss, dose response, counter-screen for streptokinase expression inhibitor project, luminescence, BacTiterGlo (AID 1915); format: functional, organism-based;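 note: potency for reduction of bacterial viability or growth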
[19] = tested on: Streptococcus sp. 'group A'; assay: growth inhibition of control SK(-) GAS strain, dose response, counter-screen for streptokinase expression inhibitor project, luminescence, kanamycin, BacTiterGlo, confirmation (AID 1900); format: functional, organism-based
Streptokinase A = target: T6, Streptokinase A (Streptococcus pyogenes serotype M1, UniProt P10520); assay: S. pyogenes streptokinase expression inhibitors, potency, dose response, plasminogen activation absorbance, OD405 (AID 1914); format: functional, Streptococcus pyogenes M1 GAS;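 note: secreted streptokinase activity via plasminogen activation per viability signal from cell pellet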
T6 sequence (P10520 whole entry): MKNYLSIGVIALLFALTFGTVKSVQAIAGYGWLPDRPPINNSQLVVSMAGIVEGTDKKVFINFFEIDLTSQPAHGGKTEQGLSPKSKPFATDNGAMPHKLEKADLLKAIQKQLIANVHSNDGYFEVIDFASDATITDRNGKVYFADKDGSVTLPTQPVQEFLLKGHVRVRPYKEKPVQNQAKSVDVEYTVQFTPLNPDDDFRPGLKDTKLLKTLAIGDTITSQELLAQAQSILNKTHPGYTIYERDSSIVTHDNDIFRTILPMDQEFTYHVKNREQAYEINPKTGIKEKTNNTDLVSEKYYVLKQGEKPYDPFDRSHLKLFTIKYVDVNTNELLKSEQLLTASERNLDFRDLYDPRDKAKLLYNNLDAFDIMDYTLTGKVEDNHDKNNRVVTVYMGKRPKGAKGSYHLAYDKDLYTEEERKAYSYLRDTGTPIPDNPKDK

Chain of NS3 (A3EZJ3 whole entry): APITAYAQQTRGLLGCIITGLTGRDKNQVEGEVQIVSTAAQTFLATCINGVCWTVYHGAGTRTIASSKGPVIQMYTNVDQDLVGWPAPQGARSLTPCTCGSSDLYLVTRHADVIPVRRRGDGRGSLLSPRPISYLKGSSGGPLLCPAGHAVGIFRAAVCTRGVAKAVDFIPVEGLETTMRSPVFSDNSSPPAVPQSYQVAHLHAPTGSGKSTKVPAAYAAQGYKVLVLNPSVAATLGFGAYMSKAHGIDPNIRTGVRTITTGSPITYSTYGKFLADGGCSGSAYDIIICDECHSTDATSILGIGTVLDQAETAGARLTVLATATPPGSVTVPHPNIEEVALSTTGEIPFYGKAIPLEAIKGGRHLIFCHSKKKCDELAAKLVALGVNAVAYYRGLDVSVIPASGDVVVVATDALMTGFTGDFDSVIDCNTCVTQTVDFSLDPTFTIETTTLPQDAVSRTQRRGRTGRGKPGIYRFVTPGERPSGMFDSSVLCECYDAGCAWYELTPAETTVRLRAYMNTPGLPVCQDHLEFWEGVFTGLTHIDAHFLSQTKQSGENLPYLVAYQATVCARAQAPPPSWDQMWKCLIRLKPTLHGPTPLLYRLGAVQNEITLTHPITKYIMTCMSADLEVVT
Chain of Peroxisome proliferator-activated receptor gamma/Nuclear receptor coactivator 1 (P37231 whole entry): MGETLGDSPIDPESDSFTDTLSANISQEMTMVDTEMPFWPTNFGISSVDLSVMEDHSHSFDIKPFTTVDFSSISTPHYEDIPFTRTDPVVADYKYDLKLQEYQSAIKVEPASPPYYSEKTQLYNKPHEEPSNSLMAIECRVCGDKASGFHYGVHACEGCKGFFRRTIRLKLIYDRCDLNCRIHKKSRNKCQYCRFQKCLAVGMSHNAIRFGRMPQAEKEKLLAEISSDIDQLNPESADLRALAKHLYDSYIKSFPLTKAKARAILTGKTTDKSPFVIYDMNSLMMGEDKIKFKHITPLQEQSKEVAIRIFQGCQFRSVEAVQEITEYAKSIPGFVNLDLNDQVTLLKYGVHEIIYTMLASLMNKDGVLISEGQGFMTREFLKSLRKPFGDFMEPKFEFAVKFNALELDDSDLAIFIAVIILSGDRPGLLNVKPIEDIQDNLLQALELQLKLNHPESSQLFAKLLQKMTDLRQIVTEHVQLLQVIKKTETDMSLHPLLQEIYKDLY
Chain of Peroxisome proliferator-activated receptor gamma/Nuclear receptor coactivator 1 (Q15788 whole entry, further chain): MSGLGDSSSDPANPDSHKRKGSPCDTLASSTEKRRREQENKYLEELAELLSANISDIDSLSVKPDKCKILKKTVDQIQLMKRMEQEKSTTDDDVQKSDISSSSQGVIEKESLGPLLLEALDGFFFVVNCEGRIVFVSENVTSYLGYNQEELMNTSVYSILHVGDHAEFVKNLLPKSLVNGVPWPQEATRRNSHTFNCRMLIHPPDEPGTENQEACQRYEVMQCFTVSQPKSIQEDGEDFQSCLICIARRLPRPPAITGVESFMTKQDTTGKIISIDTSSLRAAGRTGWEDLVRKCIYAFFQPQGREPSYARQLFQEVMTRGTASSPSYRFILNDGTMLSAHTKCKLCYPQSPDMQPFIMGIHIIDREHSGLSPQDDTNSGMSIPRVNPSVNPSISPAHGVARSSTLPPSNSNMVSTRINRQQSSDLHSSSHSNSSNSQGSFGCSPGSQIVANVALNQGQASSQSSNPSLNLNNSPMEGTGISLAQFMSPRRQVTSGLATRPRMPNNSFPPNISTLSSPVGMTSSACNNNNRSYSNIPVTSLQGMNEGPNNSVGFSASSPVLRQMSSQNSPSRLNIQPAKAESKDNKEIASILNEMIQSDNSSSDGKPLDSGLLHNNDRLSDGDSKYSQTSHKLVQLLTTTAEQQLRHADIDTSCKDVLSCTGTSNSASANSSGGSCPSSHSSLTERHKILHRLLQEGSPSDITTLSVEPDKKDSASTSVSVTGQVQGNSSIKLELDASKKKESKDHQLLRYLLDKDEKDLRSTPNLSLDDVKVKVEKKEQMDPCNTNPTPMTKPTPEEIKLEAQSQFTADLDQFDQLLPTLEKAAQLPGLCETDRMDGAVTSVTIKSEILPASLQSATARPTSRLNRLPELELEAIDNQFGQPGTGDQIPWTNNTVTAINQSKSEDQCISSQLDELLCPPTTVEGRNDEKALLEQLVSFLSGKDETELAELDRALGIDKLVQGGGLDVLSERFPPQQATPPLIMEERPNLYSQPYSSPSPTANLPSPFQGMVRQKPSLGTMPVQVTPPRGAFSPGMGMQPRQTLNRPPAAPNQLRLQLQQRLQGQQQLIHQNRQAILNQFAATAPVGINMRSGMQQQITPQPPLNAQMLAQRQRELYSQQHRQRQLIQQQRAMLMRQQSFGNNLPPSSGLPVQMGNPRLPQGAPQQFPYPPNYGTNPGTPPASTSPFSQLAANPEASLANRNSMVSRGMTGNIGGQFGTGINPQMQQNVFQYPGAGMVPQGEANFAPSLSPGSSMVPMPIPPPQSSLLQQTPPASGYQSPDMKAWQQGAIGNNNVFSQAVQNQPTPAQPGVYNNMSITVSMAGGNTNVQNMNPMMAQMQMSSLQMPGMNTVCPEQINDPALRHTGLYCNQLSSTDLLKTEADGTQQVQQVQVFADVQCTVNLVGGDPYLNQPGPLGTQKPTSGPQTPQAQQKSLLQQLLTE
Chain of Peroxisome proliferator-activated receptor gamma/Nuclear receptor coactivator 3 (P37231 whole entry): as the sequence (P37231 whole entry) above
Chain of Peroxisome proliferator-activated receptor gamma/Nuclear receptor coactivator 3 (Q9Y6Q9 whole entry, further chain): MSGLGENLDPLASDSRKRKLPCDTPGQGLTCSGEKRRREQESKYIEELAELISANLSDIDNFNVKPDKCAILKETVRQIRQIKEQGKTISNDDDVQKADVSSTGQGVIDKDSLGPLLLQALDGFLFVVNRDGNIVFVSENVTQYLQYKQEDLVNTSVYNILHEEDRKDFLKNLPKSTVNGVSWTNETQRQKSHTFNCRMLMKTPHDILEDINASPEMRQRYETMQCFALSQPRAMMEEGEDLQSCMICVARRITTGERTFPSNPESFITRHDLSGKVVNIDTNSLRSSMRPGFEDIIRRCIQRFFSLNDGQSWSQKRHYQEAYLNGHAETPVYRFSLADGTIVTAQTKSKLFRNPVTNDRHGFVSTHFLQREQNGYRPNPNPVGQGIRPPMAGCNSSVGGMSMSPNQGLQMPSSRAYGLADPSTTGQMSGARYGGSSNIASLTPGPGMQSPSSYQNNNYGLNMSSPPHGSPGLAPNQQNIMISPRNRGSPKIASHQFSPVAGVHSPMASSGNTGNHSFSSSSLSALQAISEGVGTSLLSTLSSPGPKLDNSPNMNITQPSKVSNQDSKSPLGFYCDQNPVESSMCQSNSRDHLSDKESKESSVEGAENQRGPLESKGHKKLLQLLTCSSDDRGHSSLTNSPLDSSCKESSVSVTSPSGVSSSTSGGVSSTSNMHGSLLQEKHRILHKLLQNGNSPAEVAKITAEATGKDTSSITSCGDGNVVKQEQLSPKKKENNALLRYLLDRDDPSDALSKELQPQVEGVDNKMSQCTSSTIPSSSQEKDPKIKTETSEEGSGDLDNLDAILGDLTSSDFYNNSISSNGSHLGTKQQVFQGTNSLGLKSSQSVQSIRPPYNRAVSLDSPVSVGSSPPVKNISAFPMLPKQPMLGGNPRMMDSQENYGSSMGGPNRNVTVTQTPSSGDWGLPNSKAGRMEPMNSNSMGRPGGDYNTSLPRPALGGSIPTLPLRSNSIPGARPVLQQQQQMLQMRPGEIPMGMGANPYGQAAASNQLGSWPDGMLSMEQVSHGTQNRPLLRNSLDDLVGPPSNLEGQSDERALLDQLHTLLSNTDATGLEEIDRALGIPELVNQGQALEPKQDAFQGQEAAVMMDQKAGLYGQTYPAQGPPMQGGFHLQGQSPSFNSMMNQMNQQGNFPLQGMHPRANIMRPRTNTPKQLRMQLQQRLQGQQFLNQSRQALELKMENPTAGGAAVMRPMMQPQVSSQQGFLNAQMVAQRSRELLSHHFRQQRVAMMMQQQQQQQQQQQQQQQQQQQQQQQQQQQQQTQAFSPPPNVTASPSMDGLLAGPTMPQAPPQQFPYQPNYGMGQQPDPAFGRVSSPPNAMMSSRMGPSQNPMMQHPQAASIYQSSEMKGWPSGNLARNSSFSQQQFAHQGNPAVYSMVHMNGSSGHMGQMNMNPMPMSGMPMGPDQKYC
Chain of Glyceraldehyde-3-phosphate dehydrogenase (P04406 whole entry): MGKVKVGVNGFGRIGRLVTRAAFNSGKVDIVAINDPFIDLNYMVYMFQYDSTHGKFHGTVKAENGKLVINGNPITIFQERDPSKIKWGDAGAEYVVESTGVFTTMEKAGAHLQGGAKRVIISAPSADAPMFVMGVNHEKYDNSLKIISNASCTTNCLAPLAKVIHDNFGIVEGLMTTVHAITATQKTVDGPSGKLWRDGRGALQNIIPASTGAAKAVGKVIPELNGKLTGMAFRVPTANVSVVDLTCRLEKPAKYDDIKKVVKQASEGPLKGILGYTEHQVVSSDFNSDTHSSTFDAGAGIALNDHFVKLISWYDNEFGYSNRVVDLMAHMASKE

## CC(C)CNc1nc(=O)n(-c2ccc(F)cc2)c(=O)[nH]1
[1]
  IC50: > 100 µM (not active)
[2]
  IC50: > 100 µM (not active)
[3]
  IC50: > 100 µM (inactive)
[4]
  IC50: > 100 µM (inactive)

## Cc1ccc2cc(CN(CC3CCCO3)C(S)=NCc3ccco3)c(O)nc2c1C (configuration not stated)
cells
  IC50: 24.6 µM (active)
[5]
  CC50: 24.3 µM (active)

## Cc1cc2ccccn2c1C(=O)C(=O)O
[1]
  IC50: > 100 µM (not active)
[2]
  IC50: > 100 µM (not active)
[3]
  IC50: > 100 µM (inactive)
[4]
  IC50: > 100 µM (inactive)

## CCc1cccc(C)c1NC(=O)Nc1ccc2c(c1)OCO2
[6]
  EC50: > 55.7 µM (not active)
[7]
  EC50: > 55.7 µM (not active)

## CN1CCOCCOCCN(C)C(=O)N2CCOCCOCCN(CCOCC2)C1=O
[6]
  EC50: > 55.7 µM (not active)
[7]
  EC50: > 55.7 µM (not active)

## Cc1ccc2c(c1)C1C3CCC(C3)C1[S+]([O-])N2 (configuration not stated)
[8]
  AC50: 25.6 µM (active)

## O=C(CSc1ccc2nnc(-c3ccc(Cl)cc3)n2n1)N1CCCc2ccccc21
[9]
  EC50: 50.1 µM (not active)
[10]
  EC50: 27.4 µM (not active)
[11]
  EC50: 52.3 µM (not active)

## CCOC(=O)c1ccc(N2C(=O)C(C)=C(C)C2=O)cc1
[8]
  AC50: 25 µM (active)

## O=C(/C=C/c1ccc(OCc2c(F)cccc2Cl)cc1)N1CCOCC1
cells
  IC50: 10.4 µM (active)
[5]
  CC50: 15.9 µM (active)

## CCOc1ccc(NC(=S)N2CCC(C(O)(c3ccccc3)c3ccccc3)CC2)cc1
[12]
  IC50: 0.22 µM (active)
[13]
  IC50: > 35 µM (not active)

## Cc1cc(N2C(=O)C(O)=C(C(=O)c3ccc(C)o3)C2c2cccc(Oc3ccccc3)c2)no1 (configuration not stated)
NS3
  IC50: 1.95 µM (active)
Genome polyprotein
  IC50: 32 µM (active)
Vero
  CC50: > 40 µM (active)

## CCOC(=O)c1ccc(NC(=O)CCc2nc(-c3ccc(C)cc3)no2)cc1
[9]
  EC50: > 79.4 µM (not active)
[10]
  EC50: > 79.4 µM (not active)
[11]
  EC50: > 79.4 µM (not active)

## CCOC(=O)c1sc(N2C(=O)C(O)=C(C(=O)c3ccc(C)o3)C2c2cccc([N+](=O)[O-])c2)nc1C (configuration not stated)
[14]
  EC50: > 112 µM (not active)
[15]
  IC50: 41.1 µM (active)
[16]
  EC50: 18.5 µM (active)

## COc1ccc(C(=O)C2=C(O)C(=O)N(c3ccccn3)C2c2ccc(C(C)C)cc2)cc1 (configuration not stated)
H4
  EC50: 17 µM (active)
NS3
  IC50: 6.24 µM (active)
[17]
  EC50: 22.4 µM (active)

## CC(C)COC(=O)c1cccc2c1-c1ccccc1/C2=N\O
[18]
  AC50: 5.69 µM (active)
[5]
  CC50: > 50 µM (active)
Streptococcus
  EC50: > 150 µM (not active)
[19]
  EC50: 4.74 µM (active)
[12]
  IC50: 4.96 µM (active)
Streptokinase A
  EC50: > 50 µM (not active)
[13]
  IC50: 6.46 µM (active)
